Patent US9034886B2, “4-aminoquinazoline derivatives and uses thereof” (Shanghai Institute of Pharmaceutical Industry, priority 2011, dated 2015)

How the values were obtained:
HDACs = assay: In vitro inhibition of HDACs (HDAC Inhibitor Drug Screening Kit, Biovision K340-100); type: biochemical
Description: The in vitro inhibitory activities of the compounds towards HDACs were tested according to the instructions in the HDAC Inhibitor Drug Screening Kit (Biovision/Catalog #K340-100).
(1) The compounds to be tested were each individually prepared as 2 mM, 200 μM and 40 μM solutions and their inhibitory activities at these concentrations were tested.

HDAC1 = HDAC1 (Homo sapiens (Human), UniProt Q13547); assay: In vitro inhibition of subtype HDAC1 (HDAC1 Inhibitor Drug Screening Kit, Biovision); type: biochemical; settings: for inhibition at 1 µM / inhibition at 10 µM: read-out: % Inhibition towards HDAC1; for inhibitory activity against HDAC1 compared with MS-275: both concentrations 10 μM and 1 μM
Description: The in vitro inhibitory activities of the compounds towards the subtype HDAC1 were tested according to the instructions in the HDAC1 Inhibitor Drug Screening Kit (Biovision).
(1) The compounds to be tested were each individually prepared as 10 μM and 1 μM solutions and their inhibitory activities at these concentrations were tested.
Each dilution sample was placed in two wells and the enzyme inhibition IC50 of the compound was tested.

[1] = tested on: Hut78 T lymphocytic leukemia cells; assay: In vitro anti-proliferative effect, CCK-8 method, Hut78; type: cell-based; settings: Homo sapiens, HuT78, read-out: Hut-78 (inhibition %)
Procedure, shortened: (§1)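 Percent growth inhibition, measured with CCK-8, in Hut78 and K562 leukemia cells at two compound concentrations, 10 μM and 100 μM.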

[2] = tested on: PANC-1 human pancreatic cancer cells; assay: In vitro anti-proliferative effect, CCK-8 method, PANC-1; type: cell-based; settings: Homo sapiens, PANC-1
Procedure, shortened: (§2)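 Read-out: CCK-8 viability, expressed as % inhibition; two test concentrations, 100 μM and 10 μM.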

[3] = tested on: Jurkat E6-1 human T-cell lymphoma; assay: In vitro anti-proliferative effect, CCK-8 method, Jurkat E6-1; type: cell-based; settings: Homo sapiens, Jurkat E6.1
Procedure, shortened: as §2

[4] = tested on: K562 human chronic myelogenous leukemia cells; assay: In vitro anti-proliferative effect, CCK-8 method, K562; type: cell-based; settings: Homo sapiens, K562
Procedure, shortened: as §1

[5] = tested on: A549 human lung cancer cells; assay: In vitro anti-proliferative effect, CCK-8 method, A549; type: cell-based; settings: Homo sapiens, A549
Procedure, shortened: as §2

[6] = tested on: MDA-MB-435s human breast cancer cells; assay: In vitro anti-proliferative effect, CCK-8 method, MDA-MB-435s; type: cell-based; settings: Homo sapiens, MDA-MB-435S
Procedure, shortened: as §2

[7] = tested on: Hep3B2.1-7 human liver cancer cells; assay: In vitro anti-proliferative effect, CCK-8 method, Hep3B; type: cell-based; settings: Homo sapiens, Hep3B cell strain, CCK-8 method; for inhibition at 10 µM: compound at 10 μM; for inhibition at 100 µM: compound at 100 μM
Procedure, shortened: as §2

[8] = tested on: PC-3 human prostate cancer; assay: In vitro anti-proliferative effect, CCK-8 method, PC-3; type: cell-based; settings: Homo sapiens, PC-3 cell strain, CCK-8 method; for inhibition at 10 µM: compound at 10 μM; for inhibition at 100 µM: compound at 100 μM
Procedure, shortened: as §2

[9] = tested on: Colo320 human colorectal cancer cell lines; assay: In vitro anti-proliferative effect, CCK-8 method, Colo320; type: cell-based; settings: Homo sapiens, COLO 320, Colo320 cell strain, CCK-8 method; for inhibition at 10 µM: compound at 10 μM; for inhibition at 100 µM: compound at 100 μM
Procedure, shortened: as §2

[10] = Maximum tolerance dose through intragastrical administration; type: in vivo; settings: mice, administrated intragastrically
Description: Forty ICR mice, half female and half male, weighing […] were divided into four groups, 10 mice in each group. After the mice were fasted for 6 h, the compound to be tested was administrated intragastrically to each group at a volume of 0.3 ml/10 g by using a sterile plastic syringe. General physical signs and the deaths of the animals were record at 1, 2 and 4 h after the administration. The animals were then observed continuously for 14 days and their weights, physical signs and deaths were observed and recorded every day. Dead animals were dissected to see if there was any visible pathological change in the animal's viscera and pathological examination was performed on suspicious tissues and organs. A part of the experimental results is as follows.

Chain of HDAC1 (Q13547 whole entry): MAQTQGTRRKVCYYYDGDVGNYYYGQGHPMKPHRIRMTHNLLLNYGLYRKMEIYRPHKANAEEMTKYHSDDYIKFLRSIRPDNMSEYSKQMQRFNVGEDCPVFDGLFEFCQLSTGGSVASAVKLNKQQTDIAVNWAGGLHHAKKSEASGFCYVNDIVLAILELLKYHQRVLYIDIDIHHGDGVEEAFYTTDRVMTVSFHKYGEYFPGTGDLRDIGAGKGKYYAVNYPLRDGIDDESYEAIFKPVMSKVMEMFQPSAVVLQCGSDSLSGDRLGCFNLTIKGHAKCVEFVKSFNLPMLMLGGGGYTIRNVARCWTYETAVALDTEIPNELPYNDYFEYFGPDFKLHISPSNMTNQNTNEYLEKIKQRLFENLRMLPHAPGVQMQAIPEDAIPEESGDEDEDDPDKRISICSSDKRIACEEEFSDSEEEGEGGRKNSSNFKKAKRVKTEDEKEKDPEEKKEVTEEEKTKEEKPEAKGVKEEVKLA

SMILES | Inhibition percentage (%) towards HDACs (HDACs; 40 μM) | Inhibition percentage (%) towards HDACs (HDACs; 200 μM) | Inhibition percentage (%) towards HDACs (HDACs; 2 mM) | inhibition at 1 µM (HDAC1) | inhibition at 10 µM (HDAC1) | inhibitory activity against HDAC1 compared with MS-275 (HDAC1) | inhibition at 10 µM [1] | inhibition at 100 µM [1] | inhibition at 10 µM [2] | inhibition at 100 µM [2] | inhibition at 10 µM [3] | inhibition at 100 µM [3] | inhibition at 10 µM [4] | inhibition at 100 µM [4] | inhibition at 10 µM [5] | inhibition at 100 µM [5] | inhibition at 10 µM [6] | inhibition at 100 µM [6] | inhibition at 10 µM [7] | inhibition at 100 µM [7] | further results
COc1cc2ncnc(Nc3ccc(C(=O)Nc4cc(-c5ccccc5)ccc4N)cc3)c2cc1OC [Compound V-24, N-[2-amino-5-(phenyl)phenyl]-4-(6,7-dimethoxyquinazoline-4-amino)benzamide] | 24.2% | 55.2% | 76.1% | 51% | 73.3% | superior to that of MS-275 | 15.5% | 72.9% | 17.5% | 22.1% | 30.7% | 91.4% | -1.7% | 75.3% | 7.3% | 20.8% | -10.8% | 24.5% | 14.3% | 69.5% | inhibition at 10 µM [8]: 13.1%; inhibition at 100 µM [8]: 63.7%; inhibition at 10 µM [9]: -1.7%; inhibition at 100 µM [9]: 16.5%; maximum tolerance dose [10]: over 2000 mg/kg
Nc1ccccc1NC(=O)c1ccc(Nc2ncnc3cc(F)ccc23)cc1 [Compound V-13, N-(2-aminophenyl)-4-(7-fluoroquinazoline-4-amino)benzamide] | 1.0% | 20.1% | 50.0% | 53.1% | 83% | superior to that of MS-275 | 19.8% | 54% | 26% | 36.8% | 19.1% | 77.8% | 25% | 65.1% | 18.3% | 57.1% | 27.5% | 89.1% | 21.5% | 69.8% | IC50 (HDACs): 1140 nM; inhibition at 10 µM [8]: -1.9%; inhibition at 100 µM [8]: 48.5%; inhibition at 10 µM [9]: 0.9%; inhibition at 100 µM [9]: 34.3%; maximum tolerance dose [10]: over 5000 mg/kg
